In US10344019B2 (priority 2010, dated 2019):
Where two headings read alike, the source gives them in different places.

Legend:
Format in all cases: cell-based
[1] = tested on: HCV 1a RLuc cells (dicistronic genotype 1a H77 replicon, RLuc reporter); test: microbe, parasite or virus in culture; settings: Hepatitis C virus, read-out: 1a
Outline: (§1)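 Replicon cells stably carrying the listed RLuc-encoding dicistronic replicons were seeded and treated with DMSO serial dilutions of compound (10 mM stocks) diluted into culture medium. After 72 h, cells were lysed and Renilla luciferase activity measured. EC50 was derived by non-linear regression.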

[2] = tested on: HCV 1b RLuc cells (dicistronic genotype 1b Con1 replicon, RLuc reporter); test: microbe, parasite or virus in culture; settings: Hepatitis C virus, read-out: 1b (nM)
Outline: as §1

[3] = tested on: HCV 2a JFH-1 Rluc cells (dicistronic genotype 2a JFH-1 replicon, RLuc reporter); test: microbe, parasite or virus in culture; settings: Hepatitis C virus, read-out: 2a JFH
Outline: as §1

[4] = tested on: HCV 2b Rluc cells (NS5A chimeric genotype 2a JFH-1 replicon with genotype 2b MD2b-1 NS5A gene, M31 present); test: microbe, parasite or virus in culture; settings: Hepatitis C virus, read-out: 2b
Outline: as §1

[5] = tested on: HCV 3a RLuc cells (NS5A chimeric genotype 1b Con1 replicon with consensus genotype 3a NS5A gene); test: microbe, parasite or virus in culture; settings: Hepatitis C virus
Outline: as §1

[6] = tested on: HCV 4a Rluc cells (NS5A chimeric genotype 1b Con1 replicon with genotype 4a NS5A gene); test: microbe, parasite or virus in culture; settings: Hepatitis C virus, read-out: 4a
Outline: as §1

[7] = tested on: HCV 2a Rluc cells (NS5A chimeric genotype 2a JFH-1 replicon with genotype 2a J6 strain NS5A gene, M31 present); test: HCV replicon reporter assay, genotype 2a J6 (M31 present); settings: Hepatitis C virus, read-out: 2a J6
Outline: as §1

[8] = read-out: 3a, genotype 3a replicon
[9] = genotype 1a H77 replicon, RLuc reporter
[10] = genotype 2a JFH-1 replicon, RLuc reporter
[11] = read-out: 3a, genotype 3a NS5A chimeric 1b Con1 replicon

| Compound | EC50 ([1]; genotype 1a replicon) [nM] | EC50 [2] [nM] | EC50 ([3]; genotype 2a JFH-1 replicon) [nM] | EC50 [4] [nM] | EC50 [5, 8] [nM] | EC50 [6] [nM] | EC50 [7] [nM] | EC50 ([1]; genotype 1a H77 RLuc replicon) [nM] | EC50 ([3]; genotype 2a JFH-1 RLuc replicon) [nM] | EC50 ([5]; read-out: 3a, genotype 3a NS5A chimeric replicon) [nM] | EC50 [1, 9] [nM] | EC50 [3, 10] [nM] | EC50 [5, 11] [nM] |
| --- | --- | --- | --- | --- | --- | --- | --- | --- | --- | --- | --- | --- | --- |
| COC(=O)N[C@H](C(=O)N1[C@@H]2CC[C@@H](C2)[C@H]1c1nc2ccc3cc(-c4ccc5c(ccc6nc([C@@H]7CCCN7C(=O)[C@H](NC(=O)N7CCOCC7)c7ccccc7)[nH]c65)c4)ccc3c2[nH]1)C(C)C [Example 358] | 0.001 to 0.999 | 0.057 | 0.001 to 0.999 | 0.001 to 0.999 | 0.001 to 0.99 | 0.001 to 0.99 | 0.001 to 0.999 |  |  |  |  |  |  |
| COC(=O)N[C@H](C(=O)N1CCC[C@H]1c1ncc(-c2cc3c4c(ccc5cc(-c6cnc([C@@H]7CCCN7C(=O)[C@@H](NC(=O)OC)C(C)C)[nH]6)cc(c54)OC3)c2)[nH]1)C(C)C [Example 408] | 0.001 to 0.999 | 0.022 | 0.001 to 0.999 | > 44 | 0.001 to 0.99 | 0.001 to 0.99 | > 44 |  |  |  |  |  |  |
| CC[C@H](C)[C@H](NC(=O)OC)C(=O)N1CCC[C@H]1c1nc2ccc3cc(-c4ccc5c(ccc6nc([C@@H]7C[C@H](COC)CN7C(=O)[C@H](NC(=O)C7CC7)c7ccccc7)[nH]c65)c4)ccc3c2[nH]1 [Example 511] |  | 0.019 |  | 0.001 to 0.999 |  | 0.001 to 0.99 | 0.001 to 0.999 | 0.001 to 0.999 | 0.001 to 0.999 | 0.001 to 0.99 |  |  |  |
| CCC(=O)N[C@@H](C(=O)N1CCC[C@H]1c1ncc(-c2cc3c4c(c2)OCc2cc(-c5cnc([C@@H]6CCCN6C(=O)[C@H](NC(=O)CC)c6ccccc6)[nH]5)cc(c2-4)OC3)[nH]1)c1ccccc1 [Example 450] | 0.001 to 0.999 | 0.427 | 0.001 to 0.999 | 0.001 to 0.999 | 0.001 to 0.99 | 0.001 to 0.99 | 0.001 to 0.999 |  |  |  |  |  |  |
| COC(=O)N[C@@H](C(=O)N1[C@@H](C)CC[C@H]1c1ncc(-c2cc3c4c(c2)OCc2cc(-c5cnc([C@@H]6CC[C@H](C)N6C(=O)[C@H](NC(=O)OC)c6ccccc6)[nH]5)cc(c2-4)OC3)[nH]1)c1ccccc1 [Example 461] | 0.001 to 0.999 | 0.02 | 0.001 to 0.999 | 0.001 to 0.999 | 0.001 to 0.99 | 0.001 to 0.99 | 1 to 44 |  |  |  |  |  |  |
| COC(=O)N[C@H](C(=O)N1CCC[C@H]1c1ncc(-c2ccc3cc(-c4ccc(-c5cnc([C@@H]6C[C@H](F)CN6C(=O)[C@H](NC(=O)OC)c6ccccc6)[nH]5)cc4)ccc3c2)[nH]1)C(C)C [Example 129] |  | 0.007 |  | > 44 |  | 0.001 to 0.99 | > 44 |  |  |  | 0.001 to 0.999 | 0.001 to 0.999 | 0.001 to 0.99 |
| COC1CN(C(C(=O)N2CCC[C@H]2c2ncc(-c3cc4c5c(c3)OCc3cc(-c6cnc([C@@H]7CCCN7C(=O)C(c7ccccc7)N7CC(OC)C7)[nH]6)cc(c3-5)OC4)[nH]2)c2ccccc2)C1 (stereo partly shown) [Example 444] | 1 to 44 | 1.76 | 0.001 to 0.999 | 1 to 44 | 0.001 to 0.99 | 1 to 4.99 | 1 to 44 |  |  |  |  |  |  |
| COC[C@H]1C[C@@H](c2ncc(-c3ccc(-c4ccc5c(c4)OCc4nc([C@@H]6CCCN6C(=O)[C@@H](NC(=O)OC)C(C)C)[nH]c4-5)cc3)[nH]2)N(C(=O)[C@@H](NC(=O)OC)C(C)C)C1 [Example 458] | 0.001 to 0.999 | 0.085 | 0.001 to 0.999 | > 44 | 1 to 4.99 | 0.001 to 0.99 | > 44 |  |  |  |  |  |  |
| COC(=O)N[C@H](C(=O)N1CCC[C@H]1c1ncc(-c2ccc3cc(-c4ccc(-c5cnc([C@@H]6CCCN6C(=O)[C@H](NC(=O)OC)c6ccccc6)[nH]5)cc4)ccc3c2)[nH]1)[C@@H](C)OC(C)F (stereo partly shown) [Example 128] |  | 0.005 |  | > 44 |  | 0.001 to 0.99 | > 44 |  |  |  | 0.001 to 0.999 | 0.001 to 0.999 | 0.001 to 0.99 |
| CC(C)C(=O)N[C@@H](C(=O)N1CCC[C@H]1c1ncc(-c2cc3c4c(c2)OCc2cc(-c5cnc([C@@H]6CCCN6C(=O)[C@H](NC(=O)C(C)C)c6ccccc6)[nH]5)cc(c2-4)OC3)[nH]1)c1ccccc1 [Example 468] | 0.001 to 0.999 | 0.113 | 0.001 to 0.999 | 0.001 to 0.999 | 0.001 to 0.99 | 0.001 to 0.99 | 0.001 to 0.999 |  |  |  |  |  |  |
